Assays:
[1] = system: cornea; experiment: Corneal elasticity, recovery from indentation by spherical glass indentor (Example 7); format: in vivo, human; settings: eyes injected with hyaluronidase solution
Method: A precision spherical glass indentor was used to contact the corneal surface of subjects treated with the methods of the present invention to measure changes in corneal elasticity. The method used involved the application of the indentor, in the form of a small spherical ball to gently deflect into a test cornea to establish an initial deflection value. Measurements were taken by using an interferometer to view the deflection. Following this application, the relaxation period was measured by observing the change in the impression made by the indentor.
The indentation range of movement was characterized using a precision linear variable differential transducer (LVDT) device that measured the linear travel of a stage carrying the indentor probe. The average travel distance of the probe was established at approximately 700 micrometers. The contact depth of the indentor probe was measured by evaluating the corneal surface immediately after indentation and measuring the local height values caused by the probe contact. This value was measured to range from 266 to 300 micrometers.
A digital timer was used to mark the beginning and ending times during observation. Changes in the impression were readily observed during this period. The final end point was considered to be when the local fringe disturbance was recovered blending with the undisturbed neighboring fringes. […] However, given the time scales involved, the value of this error is considered to be small.
The method of inducing corneal inflection involved first contacting the test corneal with the indentor. After the initial contact with the cornea was established, the probe was moved forward into the cornea to a predetermined distance. Seven hundred microns was used to achieve adequate deflection. Topography was taken immediately after the deflection to record the impression made in the cornea. Observations of the cornea were then made at one (1) minute intervals to note the change in the impression made. […] Another topography was done after five (5) minutes to record the final condition of the impression. […]

[2] = system: eye of myopic human patient; experiment: Safety and efficacy of hyaluronidase and topical 3% glyceraldehyde solution, myopia in a human patient (Example 8); format: in vivo; settings: one subject, baseline UVA 20/300; 50 IU hyaluronidase, 7 days incubation, 7 days corrective lens wear, before drops
Method: In this study, a single subject was selected to test the safety and efficacy of using hyaluronidase and a glyceraldehyde solution to treat sub-optimal visual acuity. In this study, the subject was first medically evaluated and a baseline was established. A medical history of the subject was taken and a detailed examination of the subject's eyes was also performed. The subject's eyes were tested to determine: refraction, cell count, intraocular pressure (IOP), pachymetry, corneal topography and corneal elasticity. A slit-lamp examination was also performed to establish the health of the eyes. Also, the presence of any general or ocular discomfort of the subject was noted.
Following the establishment of a baseline reading (UVA 20/300), the subject was administered a single intrastromal injection of 50 IU hyaluronidase prior to the orthokeratology treatment. Following 7 days of incubation of the subject's eyes with the injected material, the subject was fitted with corrective contact lenses for overnight wear. The subject wore the corrective lenses day and night for a period of seven (7) days. At this point the subject's visual acuity was 20/15. […] The visual acuity of the subject was then monitored for 196 days to determine the effect of the treatment on the unaided visual acuity of the subject;

[3] = system: eyes of myopic human subjects; experiment: Mild myopia study, group I: 50 IU hyaluronidase, corrective lenses, 3% glyceraldehyde (Example 9); format: in vivo; settings: 50 IU hyaluronidase and corrective lenses
Description: (§1) Given the favorable results obtained in Example 8, an additional study was undertaken to test the safety and efficacy of the method of the present invention using a larger group of subjects. In this study, a group of subjects were selected and randomly separated into three test groups to test the safety and efficacy of using hyaluronidase and a glyceraldehyde solution for treating subjects with sub-optimal visual acuity. Groups one and two received an intrastromal injection of hyaluronidase (50 and 500 IU, respectively), while group three received a control injection of saline.
(§2) Following a two week incubation period after the injection, the three groups were fitted with corrective lenses to optimize the visual acuity of the subjects. The corrective lenses were left in place for a period of time sufficient to alter the shape of the subjects' eyes so as to achieve an optimal visual acuity. This period of time was generally 2 days in length. Once an acceptable visual acuity was achieved, the subjects in the three groups received a topical 3% glyceraldehyde solution in the form of ophthalmic drops four times per day while wearing the corrective lenses. The glyceraldehyde treatment was generally administered for one month. Lens wear occurred from 8 to 12 hours during the day.
(§3) At the end of the treatment period both the lens wear and the glyceraldehyde solution administration was terminated. The general health and visual acuity of the subjects was monitored from 3 to 5 months following treatment termination.
Before beginning the experimental protocol, test subjects were examined initially to establish a baseline from which the future results of the treatment were compared. For each subject a medical history was taken and a detailed examination of the eyes was also performed. The eyes of each subject were tested to determine: refraction cell count, intraocular pressure (IOP), pachymetry, corneal topography and corneal elasticity. A slit-lamp examination was also performed to establish the health of the eye. Also, the presence of any general or ocular discomfort of the subjects was noted.
Following the establishment of a baseline reading, group 1 subjects were administered a single intrastromal injection of 50 IU hyaluronidase prior to the orthokeratology treatment. Following 14 days of incubation, the subjects were fitted with corrective contact lenses for overnight wear. Subjects wore the corrective lenses night and day for a period of two (2) to seven (7) days or until visual 20/20 visual acuity was achieved. Subjects achieving an acceptable visual acuity (approximately 20/20) received an application of the topical 3% glyceraldehyde solution ophthalmic drops four times per day (8:00, 12:00, 16:00, and 20:00) for a period of 1 month in conjunction with daytime lens wear for stabilization. Lens wear lasted for 8 to 12 hours per day. The subjects were examined periodically during the glyceraldehyde treatment to monitor changes in the health of the treated eyes.
(§4) At the end of the treatment period, the stabilizing lens were removed and the administration of the 3% glyceraldehyde solution was terminated. Following termination of the treatment, the subjects were examined immediately after treatment was terminated, once a week for the first four weeks after termination, and then monthly to measure changes in the visual acuity of the treated eyes. The health of the eye was also monitored. Sequelae characterized by the appearance or worsening of serious ocular symptoms or slit-lamp findings observed during these examinations was assessed. The proportions of subjects with such findings were analyzed.

[4] = system: eyes of myopic human subjects; experiment: Mild myopia study, group II: 500 IU hyaluronidase, corrective lenses, 3% glyceraldehyde (Example 9); format: in vivo; settings: 500 IU hyaluronidase and corrective lenses
Description: as §1, §2, §3
The subjects of group II were treated as those in group I in preparation for their participation in the study reported here. Before beginning the experimental protocol, test subjects were examined initially to establish a baseline from which the future results of the treatment were compared.
Following the establishment of a baseline reading, group II subjects were fitted with contact lenses and wore the corrective lenses at night for a period of two (2) to seven (7) days or until an acceptable visual acuity (approximately 20/20) was achieved. Group II test subjects received 500 IU of hyaluronidase by injection as compared to the 50 IU of group I. Two groups of subjects received 500 IU of hyaluronidase. The results obtained from the first group are shown in Table IIIA and the results from the second group are shown in Table IIIA and are identified in the table by the notation Gr. VI. There were no meaningful differences in the treatment protocols between these two groups. Subjects achieving an acceptable visual acuity received the topical 3% glyceraldehyde solution in the form of ophthalmic drops four times per day (08:00, 12:00, 16:00, and 20:00) for a period of 1 month in conjunction with daytime lens wear for stabilization. During this period, lens were occurred for approximately 8-12 hours per day and there was no nocturnal lens wear.
The subjects were examined periodically during the glyceraldehyde treatment to monitor changes in the health of the treated eyes.
as §4, with “examinations were” for “examinations was”

hyaluronidase
change in corneal elasticity vs baseline [1]: significant reduction in corneal elasticity | visual acuity [2]: 20/15 | visual acuity achieved by initial orthokeratological treatment ([3]; all subjects except ARR/001 and JLV/015, before drops): 20/20 | visual acuity achieved by initial orthokeratological treatment ([3]; subject 001, before glyceraldehyde drops): 20/25 | visual acuity achieved by initial orthokeratological treatment ([3]; subject 015, before glyceraldehyde drops): 20/40 | visual acuity achieved before glyceraldehyde drops ([4]; subject 013 (Table IIIA)): 20/40 | visual acuity achieved before glyceraldehyde drops ([4]; subject 104 (Table IIIB)): 20/50
